Read-outs that look alike come from different tables or passages of the source.
Assays:
Format in all cases: cell-based
[1] = Viability of FS non malignant fibroblastic cells, XTT test; settings: FS cells (non-malignant fibroblastic cell line), Control DMSO = 100%, read-out: percentage of viable cells, FS
Description: (§1) The effect of the compounds Z522-XXX on the growth profile of cancer cells which express Fer was tested. The cells that were tested were: the colon cancer cell lines HT29 and HCT 116, RKO. The effect of each of the compounds on FS cells, a non malingnant fibroblastic cell line, was also studied.
(§2) Generally, cells were seeded in 96 wells microplates and were left to grow untreated overnight. Each of the compounds was dissolved in DMSO and was then added to each well in a final concentration of 5 μM. The concentration of DMSO in each well was 0.4% v/v. Untreated cells and cells subjected to 0.4% DMSO alone, served as controls. The percentage of viable cells in each well was determined 96 hours after compounds addition, using the XTT test (Berridge, M. V. et al, 2005).

[2] = test system: colon cancer cell line HT29; test: Growth profile / viability of HT29 colon cancer cells, XTT test; settings: Homo sapiens, HT-29, 96 h, Control DMSO = 100%, read-out: percentage of viable cells, HT29
Description: as §1, §2

[3] = test system: colon cancer cell line HCT 116; test: Growth profile / viability of HCT116 colon cancer cells, XTT test; settings: Homo sapiens, HCT-116, 96 h, Control DMSO = 100%, read-out: percentage of viable cells, HCT116
Description: as §1, §2

[4] = test system: colon cancer cell line RKO; test: Growth profile / viability of RKO colon cancer cells, XTT test; settings: 96 h, Control DMSO = 100%, second RKO column, read-out: percentage of viable cells, RKO
Description: as §1, §2

Structure (SMILES)	viability at 96 h, 5 µM ([1]; first FS column) [%]	viability at 96 h, 5 µM ([1]; second FS column) [%]	viability at 5 µM ([2]; second HT29 column) [%]	viability at 5 µM ([3]; first HCT116 column) [%]	viability at 5 µM ([2]; first HT29 column) [%]	viability at 5 µM ([3]; second HCT116 column) [%]	viability at 5 µM [4] [%]
CCN(CC)CCN(CC)C(=O)C1CCN(c2nn3cc(-c4ccc(Cl)cc4)nc3s2)CC1 [Compound Z522-0199, 1-[6-(4-chlorophenyl)imidazo[2,1-b][1,3,4]thiadiazol-2-yl]-N-[2-(diethylamino)ethyl]-N-ethylpiperidine-4-carboxamide]	19	21	1				
CN1CCC(N(C)C(=O)C2CCN(c3nn4cc(-c5ccc(Cl)cc5)nc4s3)CC2)CC1 [Compound Z522-0202, 1-[6-(4-chlorophenyl)imidazo[2,1-b][1,3,4]thiadiazol-2-yl]-N-methyl-N-(1-methylpiperidin-4-yl)piperidine-4-carboxamide]	73	69	0	5	1		
CN(C)CCN1CCN(C(=O)C2CCN(c3nn4cc(-c5ccc(Cl)cc5)nc4s3)CC2)CC1 [Compound Z522-0206]	2	6		1			
CN1CCC(N2CCN(C(=O)C3CCN(c4nn5cc(-c6ccc(Cl)cc6)nc5s4)CC3)CC2)CC1 [Compound Z522-0207, 6-(4-chlorophenyl)-2-(4-{[4-(1-methylpiperidin-4-yl)piperazin-1-yl]carbonyl}piperidin-1-yl)imidazo[2,1-b][1,3,4]thiadiazole]	3	16	0	0	3	4	
O=C(C1CCN(c2nn3cc(-c4ccc(Cl)cc4)nc3s2)CC1)N1CCCCC1CCN1CCOCC1 (stereo not drawn) [Compound Z522-0211, 6-(4-chlorophenyl)-2-(4-{[2-(2-morpholin-4-ylethyl)piperidin-1-yl]carbonyl}piperidin-1-yl)imidazo[2,1-b][1,3,4]thiadiazole]	75	81	60	72	64	61	
O=C(C1CCN(c2nn3cc(-c4ccc(Cl)cc4)nc3s2)CC1)N1CCCCC1CN1CCCC1 (stereo not drawn) [Compound Z522-0212, 6-(4-chlorophenyl)-2-(4-{[2-(pyrrolidin-1-ylmethyl)piperidin-1-yl]carbonyl}piperidin-1-yl)imidazo[2,1-b][1,3,4]thiadiazole]		1	0	2	1		
CN(C)CCNC(=O)CN1CCN(C(=O)C2CCN(c3nn4cc(-c5ccc(Cl)cc5)nc4s3)CC2)CC1 [Compound Z522-0218, 2-[4-({1-[6-(4-chlorophenyl)imidazo[2,1-b][1,3,4]thiadiazol-2-yl]piperidin-4-yl}carbonyl)piperazin-1-yl]-N-[2-(dimethylamino)ethyl] acetamide]	82	84	4	51	3	19	
CN(C)CCN(Cc1ccco1)C(=O)C1CCN(c2nn3cc(-c4ccc(Cl)cc4)nc3s2)CC1 [Compound Z522-0220, 1-[6-(4-chlorophenyl)imidazo[2,1-b][1,3,4]thiadiazol-2-yl]-N-[2-(dimethylamino)ethyl]-N-(2-furylmethyl)piperidine-4-carboxamide]	61	49		1	0	3	
CCN1CCN(CC2CCN(C(=O)C3CCN(c4nn5cc(-c6ccc(Cl)cc6)nc5s4)CC3)CC2)CC1 [Compound Z522-0221, 6-(4-chlorophenyl)-2-[4-({4-[(4-ethylpiperazin-1-yl)methyl]piperidin-1-yl}carbonyl)piperidin-1-yl]imidazo[2,1-b][1,3,4]thiadiazole]				1		1	
CCN(CC)CCN(CC)C(=O)C1CCN(c2nn3cc(-c4ccc(C(C)C)cc4)nc3s2)CC1 [Compound Z522-0222, N-[2-(diethylamino)ethyl]-N-ethyl-1-[6-(4-isopropylphenyl)imidazo[2,1-b][1,3,4]thiadiazol-2-yl]piperidine-4-carboxamide]	56	56		1			
CC(C)c1ccc(-c2cn3nc(N4CCC(C(=O)N5CCCN(C)CC5)CC4)sc3n2)cc1 [Compound Z522-0224, 6-(4-isopropylphenyl)-2-{4-[(4-methyl-1,4-diazepan-1-yl)carbonyl]piperidin-1-yl}imidazo[2,1-b][1,3,4]thiadiazole]	60	67	0	0	0		
CC(C)c1ccc(-c2cn3nc(N4CCC(C(=O)N(C)C5CCN(C)CC5)CC4)sc3n2)cc1 [Compound Z522-0225, 1-[6-(4-isopropylphenyl)imidazo[2,1-b][1,3,4]thiadiazol-2-yl]-N-methyl-N-(1-methylpiperidin-4-yl)piperidine-4-carboxamide]	65	28		1		0	
CC(C)c1ccc(-c2cn3nc(N4CCC(C(=O)N5CCN(C6CCN(C)CC6)CC5)CC4)sc3n2)cc1 [Compound Z522-0230, 6-(4-isopropylphenyl)-2-(4-{[4-(1-methylpiperidin-4-yl)piperazin-1-yl]carbonyl}piperidin-1-yl)imidazo[2,1-b][1,3,4]thiadiazole]	22	39		2		0	
CC(C)c1ccc(-c2cn3nc(N4CCC(C(=O)N5CCCCC5CCN5CCOCC5)CC4)sc3n2)cc1 (stereo not drawn) [Compound Z522-0234, 6-(4-isopropylphenyl)-2-(4-{[2-(2-morpholin-4-ylethyl)piperidin-1-yl]carbonyl}piperidin-1-yl)imidazo[2,1-b][1,3,4]thiadiazole]	62	105	7	60	12	54	
CC(C)c1ccc(-c2cn3nc(N4CCC(C(=O)N5CCCCC5CN5CCCC5)CC4)sc3n2)cc1 (stereo not drawn) [Compound Z522-0235, 6-(4-isopropylphenyl)-2-(4-{[2-(pyrrolidin-1-ylmethyl)piperidin-1-yl]carbonyl}piperidin-1-yl)imidazo[2,1-b][1,3,4]thiadiazole]		14		1		1	
CCN1CCN(CC2CCN(C(=O)C3CCN(c4nn5cc(-c6ccc(C(C)C)cc6)nc5s4)CC3)CC2)CC1 [Compound Z522-0244, 2-[4-({4-[(4-ethylpiperazin-1-yl)methyl]piperidin-1-yl}carbonyl)piperidin-1-yl]-6-(4-isopropylphenyl) imidazo[2,1-b][1,3,4]thiadiazole]			0		1	0	0

From US20180186815A1, “PHARMACEUTICAL COMPOSITIONS, METHODS FOR THEIR PREPARATION AND THEIR USE IN THE TREATMENT OF CANCER” (Urifer Ltd., priority 2016, published 2018)
